Key:
Format in all cases: functional
[1] = tested on: Pseudomonas aeruginosa; assay: Antibacterial activity against Pseudomonas aeruginosa UPCC 1244 at 30 ug by agar well method; conditions: read-out: IZ
[2] = tested on: Staphylococcus aureus; assay: Antibacterial activity against Staphylococcus aureus UPCC 1143 assessed as activity index at 30 ug by agar well method relative to control
[3] = tested on: Escherichia coli; assay: Antibacterial activity against Escherichia coli UPCC 1195 at 30 ug by agar well method; conditions: read-out: IZ
[4] = tested on: Bacillus subtilis; assay: Antibacterial activity against Bacillus subtilis UPCC 1295 at 30 ug by agar well method; conditions: read-out: IZ
[5] = tested on: Bacillus subtilis; assay: Antibacterial activity against Bacillus subtilis UPCC 1295 assessed as activity index at 30 ug by agar well method relative to control
[6] = tested on: Pseudomonas aeruginosa; assay: Antibacterial activity against Pseudomonas aeruginosa UPCC 1244 assessed as activity index at 30 ug by agar well method relative to control
[7] = tested on: Escherichia coli; assay: Antibacterial activity against Escherichia coli UPCC 1195 assessed as activity index at 30 ug by agar well method relative to control
[8] = tested on: Staphylococcus aureus; assay: Antibacterial activity against Staphylococcus aureus UPCC 1143 at 30 ug by agar well method; conditions: read-out: IZ
[9] = tested on: Candida albicans; assay: Antimicrobial activity against Candida albicans UPCC 2168 assessed as activity index at 30 ug by agar well method relative to control
[10] = tested on: Candida albicans; assay: Antimicrobial activity against Candida albicans UPCC 2168 at 30 ug by agar well method; conditions: read-out: IZ
[11] = tested on: Aspergillus niger; assay: Antimicrobial activity against Aspergillus niger UPCC 4219 at 30 ug by agar well method; conditions: read-out: IZ
[12] = tested on: Trichophyton mentagrophytes; assay: Antimicrobial activity against Trichophyton mentagrophytes UPCC 4193 assessed as activity index at 30 ug by agar well method relative to control
[13] = tested on: Trichophyton mentagrophytes; assay: Antimicrobial activity against Trichophyton mentagrophytes UPCC 4193 at 30 ug by agar well method; conditions: read-out: IZ
[14] = tested on: Aspergillus niger; assay: Antimicrobial activity against Aspergillus niger UPCC 4219 assessed as activity index at 30 ug by agar well method relative to control

| SMILES | zone of inhibition at 30 µg/disc [1] | Activity_index [2] | zone of inhibition at 30 µg/disc [3] | zone of inhibition at 30 µg/disc [4] | Activity_index [5] | Activity_index [6] | Activity_index [7] | zone of inhibition at 30 µg/disc [8] | Activity_index [9] | zone of inhibition at 30 µg/disc [10] | zone of inhibition at 30 µg/disc [11] | Activity_index [12] | zone of inhibition at 30 µg/disc [13] | Activity_index [14] |
| --- | --- | --- | --- | --- | --- | --- | --- | --- | --- | --- | --- | --- | --- | --- |
| O=C(N[C@H](CO)[C@H](O)c1ccc([N+](=O)[O-])cc1)C(Cl)Cl [CHLORAMPHENICOL] | 14 mm | 3.2 | 23 mm | 20 mm | 2.3 | 1.3 | 2.8 | 25 mm | – | – | – | – | – | – |
| O=C1C[C@@]2(CO1)CO[C@@]1(CO)CC(=O)O[C@@H]21 [LAPPACEOLIDE A] | 12 mm | 0.1 | 11 mm | – | 0 | 0.2 | 0.1 | 11 mm | 0.3 | 13 mm | 12 mm | 0.4 | 14 mm | 0.2 |
| O=C1C[C@]2(CO1)CO[C@@]1(CO)CC(=O)O[C@@H]21 [LAPPACEOLIDE B] | 12 mm | 0.1 | 11 mm | – | 0 | 0.2 | 0.1 | 11 mm | 0.3 | 13 mm | 11 mm | 0.3 | 13 mm | 0.1 |
